The values that follow come from paper PMC10023787, “Trio-pharmacophore DNA-encoded chemical library for simultaneous selection of fragments and linkers” (Nature Communications, 2023).

The target of test [1] is T1, MMP-2 (Homo sapiens, UniProt P08253).
T1 construct: purchased Sino Biological 10082-HNAH
T1 sequence (P08253 110-660): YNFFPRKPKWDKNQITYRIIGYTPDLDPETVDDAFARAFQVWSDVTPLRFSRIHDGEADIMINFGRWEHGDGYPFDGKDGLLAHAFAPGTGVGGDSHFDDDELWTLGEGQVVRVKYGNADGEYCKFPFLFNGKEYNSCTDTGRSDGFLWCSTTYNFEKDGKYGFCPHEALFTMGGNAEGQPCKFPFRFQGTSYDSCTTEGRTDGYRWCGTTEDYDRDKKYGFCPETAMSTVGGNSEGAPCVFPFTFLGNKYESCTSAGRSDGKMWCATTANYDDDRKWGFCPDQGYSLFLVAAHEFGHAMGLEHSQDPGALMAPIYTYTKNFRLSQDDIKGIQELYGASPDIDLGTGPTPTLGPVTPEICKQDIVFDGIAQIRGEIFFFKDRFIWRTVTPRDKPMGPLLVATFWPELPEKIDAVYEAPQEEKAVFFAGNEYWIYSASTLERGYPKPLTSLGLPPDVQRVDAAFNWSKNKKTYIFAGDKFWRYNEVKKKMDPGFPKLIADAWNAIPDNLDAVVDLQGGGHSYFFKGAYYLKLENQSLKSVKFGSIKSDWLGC
The test is described as follows: MMP-2 inhibition assay (fluorogenic peptide substrate). The following applies: for IC50: mean ± SE, n.d: not detected, Fig. 5d unit inferred, µM, read-out: IC50. The class given is biochemical. The method, boiled down: (§1)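 Human proMMP-2 and proMMP-9 were activated with 1 mM APMA (37 °C, 2 h), then used at 6.5 nM (MMP-2) or 10 nM (MMP-9) in Tris/NaCl/CaCl2/Brij 35 buffer, pH 7.5. Enzyme was preincubated with compound 30 min at RT; 25 μM DNP-Pro-Leu-Gly-Met-Trp-Ser-Arg substrate was added and fluorescence (ex 280/em 360 nm) followed 30 min. IC50 from logistic fits of Vmax.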

In test [2] the target is T2, MMP-9 (Homo sapiens, UniProt P14780).
T2 construct: purchased Sino Biological 10327-HNAH
As to the kind of experiment: MMP-9 inhibition assay (fluorogenic peptide substrate). On the set-up: remaining enzyme activity (% of control): scale not given here. The following applies: for IC50: mean ± SE, n.d: not detected, Fig. 5e prints no unit, µM, read-out: IC50. The class given is biochemical. The method, boiled down: as §1

Each structure is given as a SMILES string.

T2 sequence (P14780 107-707 limits assumed): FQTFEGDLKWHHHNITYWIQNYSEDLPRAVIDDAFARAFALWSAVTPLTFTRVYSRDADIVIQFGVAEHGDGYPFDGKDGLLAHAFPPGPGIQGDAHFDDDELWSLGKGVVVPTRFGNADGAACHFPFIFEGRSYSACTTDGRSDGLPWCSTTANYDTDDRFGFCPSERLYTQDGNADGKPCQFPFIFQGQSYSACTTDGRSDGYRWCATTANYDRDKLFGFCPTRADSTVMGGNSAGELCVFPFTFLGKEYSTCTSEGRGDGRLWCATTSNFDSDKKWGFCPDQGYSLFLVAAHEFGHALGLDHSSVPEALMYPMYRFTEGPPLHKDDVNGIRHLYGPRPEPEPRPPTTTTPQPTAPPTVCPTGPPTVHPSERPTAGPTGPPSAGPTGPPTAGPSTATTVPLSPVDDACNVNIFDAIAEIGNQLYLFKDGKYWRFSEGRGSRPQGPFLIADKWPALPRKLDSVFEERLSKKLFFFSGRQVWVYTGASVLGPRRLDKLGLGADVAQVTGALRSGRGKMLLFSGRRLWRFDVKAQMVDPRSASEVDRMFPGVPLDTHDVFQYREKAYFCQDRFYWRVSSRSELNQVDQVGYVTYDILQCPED

For `Cn1c(O)nc2cc(C(=O)NCCCCCCCCNC(=O)Cn3cnc4c(oc5ccccc54)c3=O)cnc21` [182+826 Linker 4], the “remaining activity (%)” value was 92.61 in test [1] (MMP-2, concentration 0.12 µM); 95.31 in test [1] (MMP-2, concentration 0.49 µM); 84.32 in test [1] (MMP-2, concentration 1.95 µM); 92.35 in test [1] (MMP-2, concentration 7.81 µM); 84.58 in test [1] (MMP-2, concentration 31.25 µM); 82.25 in test [1] (MMP-2, concentration 125.00 µM). The “remaining activity (%)” value in test [1] (MMP-2, concentration 500.00 µM) came to 42.45. For the same compound, the IC50 (as a rule, the midpoint of a concentration-inhibition curve) in test [1] worked out at 439 ± 56.5 µM. Further, the “remaining enzyme activity (% of control)” value in test [2] (MMP-9, concentration 0.13 µM) amounted to 96.35; in test [2] (MMP-9, concentration 0.50 µM), 93.10; in test [2] (MMP-9, concentration 2.01 µM), 95.02; in test [2] (MMP-9, concentration 8.03 µM) it was 95.39; in test [2] (MMP-9, concentration 128.50 µM), 75.89; in test [2] (MMP-9, concentration 514.00 µM), 61.85.

As for `Cn1c(O)nc2cc(C(=O)NCCOCCOCCNC(=O)Cn3cnc4c(oc5ccccc54)c3=O)cnc21` [182+826 Linker 10], the “remaining activity (%)” value is reported as 104.96 in test [1] (MMP-2, concentration 0.12 µM); 102.80 in test [1] (MMP-2, concentration 0.49 µM); 96.45 in test [1] (MMP-2, concentration 1.95 µM); 96.46 in test [1] (MMP-2, concentration 7.81 µM); 89.20 in test [1] (MMP-2, concentration 31.25 µM); 71.67 in test [1] (MMP-2, concentration 125.00 µM). For the same compound, the “remaining activity (%)” value in test [1] (MMP-2, concentration 500.00 µM) came out at 58.28. In addition, the “remaining enzyme activity (% of control)” value in test [2] (MMP-9, concentration 0.12 µM) turned out to be 94.26; in test [2] (MMP-9, concentration 0.49 µM), 94.53; in test [2] (MMP-9, concentration 1.95 µM), 79.71; in test [2] (MMP-9, concentration 7.81 µM) it was 87.21; in test [2] (MMP-9, concentration 31.25 µM), 75.62; in test [2] (MMP-9, concentration 125.00 µM), 66.17. The “remaining enzyme activity (% of control)” value in test [2] (MMP-9, concentration 500.00 µM) is on record as 43.49. For the same compound, the IC50 in test [2] was 283 ± 84.3 µM.

In the case of `Cn1c(O)nc2cc(C(=O)NCCCCC=CC(=O)CC(=O)NCCNC(=O)Cn3cnc4c(oc5ccccc54)c3=O)cnc21` [182+826 Linker 12], the “remaining activity (%)” value was 97.62 in test [1] (MMP-2, concentration 0.13 µM); 96.92 in test [1] (MMP-2, concentration 0.50 µM); 91.66 in test [1] (MMP-2, concentration 2.01 µM); 85.01 in test [1] (MMP-2, concentration 8.03 µM); 28.27 in test [1] (MMP-2, concentration 128.50 µM); 12.65 in test [1] (MMP-2, concentration 514.00 µM). Moreover, the values for the IC50 in test [1] and in test [2] were 62.3 ± 14 µM and 131 ± 24.2 µM, respectively. In addition, the “remaining enzyme activity (% of control)” value is 93.35 in test [2] (MMP-9, concentration 0.12 µM); 105.08 in test [2] (MMP-9, concentration 0.49 µM); 88.98 in test [2] (MMP-9, concentration 1.95 µM); 94.00 in test [2] (MMP-9, concentration 7.81 µM); 85.67 in test [2] (MMP-9, concentration 31.25 µM); 51.95 in test [2] (MMP-9, concentration 125.00 µM). Also, in test [2] (MMP-9, concentration 500.00 µM), the “remaining enzyme activity (% of control)” value is recorded as 12.28.

Regarding `Cn1c(O)nc2cc(C(=O)NCCNC(=O)CSCCNC(=O)Cn3cnc4c(oc5ccccc54)c3=O)cnc21` [182+826 Linker 24], the “remaining activity (%)” value worked out at 97.26 in test [1] (MMP-2, concentration 0.09 µM); 110.41 in test [1] (MMP-2, concentration 0.36 µM); 108.70 in test [1] (MMP-2, concentration 1.46 µM); 101.42 in test [1] (MMP-2, concentration 5.83 µM); 109.20 in test [1] (MMP-2, concentration 23.31 µM); 102.62 in test [1] (MMP-2, concentration 93.25 µM). For the same compound, in test [1] (MMP-2, concentration 373.00 µM), the “remaining activity (%)” value is 72.08. Also, the “remaining enzyme activity (% of control)” value in test [2] (MMP-9, concentration 0.09 µM) stood at 91.31; in test [2] (MMP-9, concentration 0.36 µM), 105.17; in test [2] (MMP-9, concentration 1.46 µM), 94.51; in test [2] (MMP-9, concentration 5.83 µM), 85.81; in test [2] (MMP-9, concentration 23.31 µM) it was 80.00; in test [2] (MMP-9, concentration 93.25 µM) it was 70.35. For the same compound, the “remaining enzyme activity (% of control)” value in test [2] (MMP-9, concentration 373.00 µM) was 44.33. Also, in test [2], the IC50 was 281 ± 97.2 µM.

Turning to `O=C(Cn1cnc2c(oc3ccccc32)c1=O)NCCNC(=O)c1cncc(O)c1` [182+828 Linker 1], the “remaining activity (%)” value in test [1] (MMP-2, concentration 0.00933 µM) worked out at 100.18; in test [1] (MMP-2, concentration 0.0466 µM), 86.28; in test [1] (MMP-2, concentration 0.23 µM), 84.03; in test [1] (MMP-2, concentration 5.83 µM) it was 81.34; in test [1] (MMP-2, concentration 29.14 µM), 67.66; in test [1] (MMP-2, concentration 145.72 µM), 34.11. In test [1] (MMP-2, concentration 728.60 µM), the “remaining activity (%)” value is given as 8.96. Moreover, the IC50 was found to be 77.1 ± 10 µM in test [1] and 92.1 ± 28.2 µM in test [2]. The “remaining enzyme activity (% of control)” value amounted to 88.36 in test [2] (MMP-9, concentration 0.08 µM); 92.30 in test [2] (MMP-9, concentration 0.42 µM); 86.01 in test [2] (MMP-9, concentration 2.10 µM); 90.65 in test [2] (MMP-9, concentration 10.52 µM); 56.79 in test [2] (MMP-9, concentration 52.60 µM); 22.31 in test [2] (MMP-9, concentration 263.00 µM). Also, the “remaining enzyme activity (% of control)” value in test [2] (MMP-9, concentration 1315.00 µM) was 0.00.

In the case of `O=C(Cn1cnc2c(oc3ccccc32)c1=O)NCCCCCCCCNC(=O)c1cncc(O)c1` [182+828 Linker 4], the “remaining activity (%)” value in test [1] (MMP-2, concentration 0.0078 µM) is on record as 107.56; in test [1] (MMP-2, concentration 0.20 µM), 99.59; in test [1] (MMP-2, concentration 0.98 µM), 97.94; in test [1] (MMP-2, concentration 4.88 µM), 101.19; in test [1] (MMP-2, concentration 24.38 µM), 85.36; in test [1] (MMP-2, concentration 121.90 µM), 64.62. The “remaining activity (%)” value is listed as 31.91 in test [1] (MMP-2, concentration 609.50 µM) and 116.92 in test [1] (MMP-2, concentration 0.04 µM). Moreover, the IC50 was found to be 188 ± 25.7 µM in test [1] and 233 ± 38.3 µM in test [2]. Besides, the “remaining enzyme activity (% of control)” value turned out to be 90.17 in test [2] (MMP-9, concentration 0.08 µM); 88.39 in test [2] (MMP-9, concentration 0.39 µM); 91.84 in test [2] (MMP-9, concentration 1.95 µM); 88.91 in test [2] (MMP-9, concentration 9.75 µM); 78.10 in test [2] (MMP-9, concentration 48.76 µM); 49.14 in test [2] (MMP-9, concentration 243.80 µM). Besides, the “remaining enzyme activity (% of control)” value in test [2] (MMP-9, concentration 1219.00 µM) is recorded as 0.00.

Turning to `O=C(Cn1cnc2c(oc3ccccc32)c1=O)NCCOCCOCCNC(=O)c1cncc(O)c1` [182+828 Linker 10], the “remaining activity (%)” value in test [1] (MMP-2, concentration 0.0117 µM) came to 98.76; in test [1] (MMP-2, concentration 0.06 µM), 98.75; in test [1] (MMP-2, concentration 0.29 µM), 92.92; in test [1] (MMP-2, concentration 1.46 µM), 80.34; in test [1] (MMP-2, concentration 7.32 µM), 73.36; in test [1] (MMP-2, concentration 36.60 µM), 63.34. For the same compound, the “remaining activity (%)” value in test [1] (MMP-2, concentration 183.00 µM) is 14.49; in test [1] (MMP-2, concentration 915.00 µM) it was 0.00. The IC50 stood at 43 ± 19.3 µM in test [1] and 99.6 ± 31.7 µM in test [2]. Besides, the “remaining enzyme activity (% of control)” value was 97.14 in test [2] (MMP-9, concentration 0.06 µM); 97.22 in test [2] (MMP-9, concentration 0.29 µM); 90.75 in test [2] (MMP-9, concentration 1.46 µM); 93.96 in test [2] (MMP-9, concentration 7.32 µM); 74.71 in test [2] (MMP-9, concentration 36.60 µM); 29.12 in test [2] (MMP-9, concentration 183.00 µM). Moreover, the “remaining enzyme activity (% of control)” value in test [2] (MMP-9, concentration 915.00 µM) is 0.00.
